Columns and labels:
Assay in all cases: relative viability (nuclei count vs DMSO), 5 days (fraction); higher = more cells survive
BMX-IN-1 + Foretinib = compound: C=CC(=O)Nc1cc(-n2c(=O)ccc3cnc4ccc(-c5ccc(NS(C)(=O)=O)cc5)cc4c32)ccc1C [BMX-IN-1] + COc1cc2c(Oc3ccc(NC(=O)C4(C(=O)Nc5ccc(F)cc5)CC4)cc3F)ccnc2cc1OCCCN1CCOCC1 [Foretinib] (partner 0.25 µM)
Method in brief: (§1)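 Nuclei were stained with Hoechst during a one-step fixation (final 0.05% Triton X-100, 1% formaldehyde, 1 ug/ml Hoechst) carried out 5 days after dosing, then counted on 4× images. The cells, lung cancer lines in 1536-well plates, had been dosed by pin tool the day after seeding with one drug alone or a fixed anchor-drug dose plus five library-drug doses (not always all listed) in √10 steps. Relative viability is the nuclei count in treated wells divided by that in vehicle wells, and each value is the median of duplicate plates.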

BMX-IN-1 + Dasatinib = compound: C=CC(=O)Nc1cc(-n2c(=O)ccc3cnc4ccc(-c5ccc(NS(C)(=O)=O)cc5)cc4c32)ccc1C [BMX-IN-1] + Cc1nc(Nc2ncc(C(=O)Nc3c(C)cccc3Cl)s2)cc(N2CCN(CCO)CC2)n1 [Dasatinib] (partner 0.075 µM)
Method in brief: as §1

BMX-IN-1 + Bortezomib = compound: C=CC(=O)Nc1cc(-n2c(=O)ccc3cnc4ccc(-c5ccc(NS(C)(=O)=O)cc5)cc4c32)ccc1C [BMX-IN-1] + CC(C)C[C@H](NC(=O)[C@H](Cc1ccccc1)NC(=O)c1cnccn1)B(O)O [Bortezomib] (partner 0.002 µM)
Method in brief: as §1

BMX-IN-1 + Lapatinib = compound: C=CC(=O)Nc1cc(-n2c(=O)ccc3cnc4ccc(-c5ccc(NS(C)(=O)=O)cc5)cc4c32)ccc1C [BMX-IN-1] + CS(=O)(=O)CCNCc1ccc(-c2ccc3ncnc(Nc4ccc(OCc5cccc(F)c5)c(Cl)c4)c3c2)o1 [Lapatinib] (partner 2 µM)
Method in brief: as §1

Row | Cell Line | relative viability (BMX-IN-1 + Foretinib; first compound 0.02 µM) | relative viability (BMX-IN-1 + Foretinib; first compound 0.6325 µM) | relative viability (BMX-IN-1 + Foretinib; first compound 2 µM) | relative viability (BMX-IN-1 + Dasatinib; first compound 0.02 µM) | relative viability (BMX-IN-1 + Dasatinib; first compound 0.6325 µM) | relative viability (BMX-IN-1 + Dasatinib; first compound 2 µM) | relative viability (BMX-IN-1 + Bortezomib; first compound 0.2 µM) | relative viability (BMX-IN-1 + Bortezomib; first compound 0.6325 µM) | relative viability (BMX-IN-1 + Bortezomib; first compound 2 µM) | relative viability (BMX-IN-1 + Lapatinib; first compound 0.2 µM) | relative viability (BMX-IN-1 + Lapatinib; first compound 0.6325 µM) | relative viability (BMX-IN-1 + Lapatinib; first compound 2 µM) | relative viability (BMX-IN-1 + Foretinib; first compound 0.2 µM) | relative viability (BMX-IN-1 + Dasatinib; first compound 0.2 µM) | relative viability (BMX-IN-1 + Bortezomib; first compound 0.02 µM) | relative viability (BMX-IN-1 + Lapatinib; first compound 0.02 µM)
1 | LOU-NH91 | 0.938 | 1.01 | 0.942 | 0.553 | 0.657 | 0.559 | 0.512 | 0.459 | 0.49 | 0.792 | 0.819 | 0.819 |  |  |  | 
2 | LU99A | 0.828 | 0.842 | 0.817 | 0.646 | 0.793 | 0.555 | 1.18 | 1.2 | 1.12 | 1.04 | 0.981 | 0.913 | 0.776 | 0.56 | 1.2 | 1.15
3 | LXF-289 | 1.08 | 1.06 | 1 | 0.197 | 0.247 | 0.266 | 1.16 | 1.11 | 1.05 | 1.01 | 0.957 | 0.983 | 1.03 | 0.204 | 1.09 | 0.982
4 | NCI-H23 | 1.18 | 0.938 | 0.999 | 0.839 | 0.855 | 0.722 | 1.46 | 1.18 | 1.06 | 1.24 | 1.01 | 1 | 0.965 | 0.994 | 1.23 | 1.04
5 | NCI-H322M | 1.13 | 0.967 | 0.941 | 0.261 | 0.262 | 0.256 | 1.25 | 1.2 | 1.36 | 0.591 | 0.563 | 0.578 | 0.958 | 0.251 | 1.33 | 0.626
6 | NCI-H460 | 1.22 | 1.11 | 1.06 | 0.621 | 0.679 | 0.494 |  | 1.29 | 1.03 | 1.36 | 1.75 | 1.1 | 1.09 | 0.682 | 1.94 | 
7 | NCI-H520 | 0.825 | 0.864 | 0.825 | 0.222 | 0.239 | 0.224 | 0.741 | 0.863 | 0.465 | 0.903 | 1.05 | 0.838 | 0.879 | 0.263 | 0.604 | 1.04
8 | NCI-H596 | 0.953 | 0.872 | 0.714 | 0.66 | 0.674 | 0.672 | 1.28 | 1.31 | 0.988 | 1.13 | 1.12 | 0.935 | 1.25 | 0.618 | 0.9 | 0.987
9 | NCI-H647 | 1.32 | 1.14 | 1.21 | 0.197 | 0.277 | 0.174 | 1.42 | 1.24 | 1.01 | 0.957 | 1.43 | 0.949 | 1.58 | 0.24 | 1.15 | 1.3
10 | NCI-H650 | 1.06 | 1.12 | 1.1 | 0.49 | 0.517 | 0.478 | 0.762 | 0.783 | 0.749 | 1.11 | 0.982 | 0.858 | 1.01 | 0.469 | 1.06 | 0.862
11 | NCI-H661 | 1.16 | 1.11 | 1.02 | 0.993 | 1 | 0.946 | 0.785 | 0.841 | 0.685 | 0.458 | 0.452 | 0.517 | 0.961 | 0.852 | 0.86 | 0.564
12 | NCI-H727 | 1.37 | 0.893 | 1.01 | 0.438 | 0.479 | 0.444 | 0.869 | 1.05 | 0.939 | 1.01 | 0.887 | 0.939 | 0.933 | 0.339 | 1 | 0.841
13 | NCI-H838 | 1.3 | 1.24 | 0.982 | 0.28 | 0.347 | 0.282 | 0.803 | 0.95 | 0.777 | 1.16 | 1.2 | 1.04 | 1.25 | 0.323 | 0.724 | 1.3
14 | NCI-H1355 | 1.1 | 0.921 | 0.977 | 0.772 | 0.768 | 0.785 | 1.21 | 1.4 | 1.22 | 1.09 | 1.08 | 0.982 | 1.15 | 0.777 | 1.26 | 1.14
15 | NCI-H1437 | 1.34 | 1.31 | 1.32 | 0.512 | 0.429 | 0.409 | 0.472 | 0.586 | 0.456 | 0.867 | 0.907 | 0.915 | 1.27 | 0.391 | 0.567 | 0.928
16 | NCI-H1563 | 0.922 | 0.914 | 0.906 | 0.441 | 0.423 | 0.428 | 0.925 | 0.891 | 0.79 | 0.86 | 0.903 | 0.824 | 0.956 | 0.463 | 0.896 | 0.837
17 | NCI-H1650 | 1.05 | 1.2 | 1.17 | 0.299 | 0.423 | 0.294 | 0.203 | 0.201 | 0.186 | 0.941 | 0.88 | 0.77 | 1.46 | 0.307 | 0.178 | 0.666
18 | NCI-H1651 | 1 | 0.909 | 0.773 | 0.213 | 0.435 | 0.406 | 1.06 | 0.921 | 0.951 | 0.967 | 1.17 | 0.834 | 0.907 | 0.515 | 0.959 | 1
19 | NCI-H1666 | 0.959 | 1.03 | 0.935 | 0.905 | 0.94 | 0.845 | 0.821 | 0.823 | 0.728 | 0.626 | 0.663 | 0.444 | 1.04 | 0.839 | 0.799 | 0.772
20 | NCI-H1734 | 1.01 | 1.08 | 0.796 | 0.463 | 0.476 | 0.467 | 1.24 | 0.964 | 1.17 | 1.66 | 1.1 | 1.05 | 0.954 | 0.504 | 1.05 | 1.21
